In article PMC2363502:
Entries after “also recorded” stand apart in the source; their conditions may differ. Where two headings read alike, the source gives them in different places.

Columns and labels:
[1] = tested on: L-1210 leukaemia; parameters: method as in Dorhout et al, 1995; settings: treated L-1210 leukaemia-bearing animals; ref Dorhout et al, 1995; cited from earlier work
[2] = tested on: S-adenosylmethionine decarboxylase (SAMDC); settings: cited from earlier work
[3] = tested on: solid tumours; assay: phase I clinical efficacy (UICC tumour response, markers, FDG-PET); format: in vivo, human
Experimental: Preclinical testing confirmed promising antiproliferative activity. […] Physical examination was performed weekly. […] N-Acetyl-SPERMINE SSAT SSAT […] Analysis was descriptive only. […] Patient characteristics are described in Table 1. […] Three patients completed the full six cycles of treatment. Of these, two received the combination 5FU/SAM486A from cycle 3 onwards. Five patients recorded a best response of stable disease. Of these, three received the combination 5FU/SAM486A from cycle 3 onwards (see below).

## N=C(N)c1cccc2c1CCC2=NN=C(N)N [SAM486A]
[1]
  SAMDC activity and putrescine pools in tumours: decreased SAMDC activity and elevated putrescine pools
[2]; SAMDC inhibition in vitro, ref Regenass et al, 1994
  fold more active than MGBG: approximately 200 fold
[2]; as quoted in results and discussion, read-out: IC50 required in in vitro experiments for inhibition of SAMDC
  IC50: 4.7 nM
[2]; as quoted in results
  IC50 for inhibition of SAMDC as plasma concentration: 1.1 ng/mL
[2]; in vitro, ref Regenass et al, 1994, read-out: IC50 for SAMDC
  IC50: 4.7 nM
[3]; 39 patients
  objective tumour response: No objective remission; also recorded: No complete or partial responses
  patients with stable disease as best response: five
[3]; six evaluable patients
  tumour markers (CEA, CA 15.3) post-baseline: No trends towards decreases
[3]; two patients, 400 mg m-2 cycle-1
  FDG-PET result after first 5-day infusion: stable disease at best
